Read-outs that look alike come from different tables or passages of the source.
System: cancer cell lines
Assay: Cancer cell proliferation activity (CellTiterGlo, 72 h)
Format: cell-based
Conditions: 72 h, 72 h, read-out: IC50 cell proliferation
How it was run: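 Cells seeded overnight at 37 °C, then dosed with compound at 0.1% final DMSO and incubated 72 h at 37 °C (5% or 10% CO2 by medium).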

For `C[C@]1(CO)O[C@@H](n2ccc(N)nc2=O)[C@@H](O)[C@@H]1O` [Cpd. No. 193, 4-amino-1-((2R,3S,4S,5R)-3,4-dihydroxy-5-(hydroxymethyl)-5-methyltetrahydrofuran-2-yl)pyrimidin-2(1H)-one], the IC50 (5637 (bladder)) was over 50 µM, the IC50 (CLS439 (bladder)) was over 50 µM and the IC50 (HS729 (muscle)) was 5.86 µM. It also gave an IC50 (J82 (bladder)) of 5.54 µM, an IC50 (JAR (placenta)) of over 50 µM and an IC50 (MT3 (breast)) of 0.58 µM. For the same molecule, the IC50 (PANCI (pancreas)) was 3.6 µM, the IC50 (PC3 (prostate)) was 2.04 µM and the IC50 (RD (muscle)) was over 50 µM. For the same molecule, the IC50 (T24 (bladder)) was 2.32 µM, the IC50 (Homo sapiens, 22Rv1, 72 h, 22RV1 (prostate)) was 5.77 µM and the IC50 (Homo sapiens, 786-0, 72 h, 786O (kidney)) was 9.53 µM. For the same molecule, the IC50 (Homo sapiens, A204, 72 h, A204 (muscle)) was 0.06 µM, the IC50 (Homo sapiens, A549, 72 h, A549 (lung)) was 2.32 µM and the IC50 (Homo sapiens, A673, 72 h, A673 (bone)) was 3.26 µM. For the same molecule, the IC50 (Homo sapiens, A2780, 72 h, A2780 (ovary)) was 3.47 µM, the IC50 (Homo sapiens, A-375, 72 h, A375 (skin)) was 3.61 µM and the IC50 (Homo sapiens, A-431, 72 h, A431 (skin)) was 2.52 µM. The IC50 (Homo sapiens, ACHN, ACHN (kidney)) was 2.82 µM, the IC50 (Homo sapiens, ASPC1, 72 h, ASPC1 (pancreas)) was over 50 µM and the IC50 (Homo sapiens, BT-20, 72 h, BT20 (breast)) was 3.06 µM. The IC50 (Homo sapiens, BXPC-3, 72 h, BXPC3 (pancreas)) was 4.27 µM, the IC50 (Homo sapiens, C-33-A, C33A (endometrial)) was 1.46 µM and the IC50 (Homo sapiens, CAKI-1, 72 h, CAKI1 (kidney)) was 1.58 µM. For the same molecule, the IC50 (Homo sapiens, COLO 205, 72 h, COLO205 (colon)) was 1.57 µM, the IC50 (Homo sapiens, COLO-678, 72 h, COLO678 (colon)) was over 50 µM and the IC50 (Homo sapiens, Ca-Ski, CASKI (endometrial)) was 3.06 µM. The IC50 (Homo sapiens, Caco-2, 72 h, CACO2 (colon)) was over 50 µM, the IC50 (Homo sapiens, Calu-6, 72 h, CALU6 (lung)) was 3.82 µM and the IC50 (Homo sapiens, DLD-1, 72 h, DLD1 (colon)) was 4.02 µM. The IC50 (Homo sapiens, DU-145, 72 h, DU145 (prostate)) was 1.4 µM, the IC50 (Homo sapiens, EFO-21, 72 h, EFO21 (ovary)) was 4.59 µM and the IC50 (Homo sapiens, EJ-28, 72 h, EJ28 (bladder)) was 4.43 µM. For the same molecule, the IC50 (Homo sapiens, Granta-519, 72 h, GRANTA-519 (hematological)) was 0.89 µM, the IC50 (Homo sapiens, HCT-15, 72 h, HCT15 (colon)) was 2.14 µM and the IC50 (Homo sapiens, HCT-116, 72 h, HCT116 (colon)) was 2.79 µM. For the same molecule, the IC50 (Homo sapiens, HEK293, 72 h, HEK293 (kidney)) was over 50 µM, the IC50 (Homo sapiens, HL-60, 72 h, HL-60 (hematological)) was 1.63 µM and the IC50 (Homo sapiens, HT-29, 72 h, HT29 (colon)) was over 50 µM. For the same molecule, the IC50 (Homo sapiens, HT-1080, 72 h, HT1080 (connective tissue)) was 2.78 µM, the IC50 (Homo sapiens, HeLa, HELA (endometrial)) was over 50 µM and the IC50 (Homo sapiens, HepG2, 72 h, HEPG2 (liver)) was 3.57 µM. It also gave an IC50 (Homo sapiens, Hs-578T, HS578T (breast)) of over 50 µM, an IC50 (Homo sapiens, IGROV-1, 72 h, IGROV1 (ovary)) of 2.14 µM and an IC50 (Homo sapiens, IMR-90, 72 h, IMR90 (lung)) of 4.16 µM. The IC50 (Homo sapiens, JEG-3, 72 h, JEG3 (placenta)) was over 50 µM, the IC50 (Homo sapiens, JIMT-1, 72 h, JIMT1 (breast)) was 2.82 µM and the IC50 (Homo sapiens, K562, 72 h, K-562 (hematological)) was over 50 µM. It also gave an IC50 (Homo sapiens, Kasumi 1, 72 h, KASUMI-1 (hematological)) of 0.37 µM, an IC50 (Homo sapiens, L-363, 72 h, L-363 (hematological)) of over 50 µM and an IC50 (Homo sapiens, LoVo, LOVO (colon)) of 2.33 µM. It also gave an IC50 (Homo sapiens, MCF7, 72 h, MCF7 (breast)) of over 50 µM, an IC50 (Homo sapiens, MDA-MB-231, 72 h, MDAMB231 (breast)) of 1.45 µM and an IC50 (Homo sapiens, MDA-MB-435, 72 h, MDAMB435 (skin)) of 4.74 µM. The IC50 (Homo sapiens, MDA-MB-436, 72 h, MDAMB436 (breast)) was over 50 µM, the IC50 (Homo sapiens, MDA-MB-468, 72 h, MDAMB468 (breast)) was over 50 µM and the IC50 (Homo sapiens, MG-63, 72 h, MG63 (bone)) was over 50 µM. It also gave an IC50 (Homo sapiens, MHH-ES-1, 72 h, MHHES1 (bone)) of 2.26 µM, an IC50 (Homo sapiens, MIA PaCa-2, 72 h, MIAPACA2 (pancreas)) of over 50 µM and an IC50 (Homo sapiens, MINO, MINO (hematological)) of 0.25 µM. For the same molecule, the IC50 (Homo sapiens, MV4-11, 72 h, MV4-11 (hematological)) was 4.77 µM, the IC50 (Homo sapiens, NCI-H23, 72 h, NCI-H23 (lung)) was 7.88 µM and the IC50 (Homo sapiens, NCI-H82, 72 h, NCIH82 (lung)) was 3.37 µM. For the same molecule, the IC50 (Homo sapiens, NCI-H292, 72 h, NCIH292 (lung)) was 5.76 µM, the IC50 (Homo sapiens, NCI-H460, 72 h, NCIH460 (lung)) was 2.83 µM and the IC50 (Homo sapiens, OVCAR-3, 72 h, OVCAR3 (ovary)) was 2.75 µM. The IC50 (Homo sapiens, OVCAR-4, 72 h, OVCAR4 (ovary)) was over 50 µM, the IC50 (Homo sapiens, PLC-PRF-5, 72 h, PLCPRF5 (liver)) was over 50 µM and the IC50 (Homo sapiens, Panc1005, 72 h, PANC1005 (pancreas)) was over 50 µM. It also gave an IC50 (Homo sapiens, Ramos, RAMOS (hematological)) of 3.01 µM, an IC50 (Homo sapiens, SAOS-2, 72 h, SAOS2 (bone)) of 1.12 µM and an IC50 (Homo sapiens, SF-268, 72 h, SF268 (brain)) of 2.77 µM. The IC50 (Homo sapiens, SF-295, 72 h, SF295 (brain)) was over 50 µM, the IC50 (Homo sapiens, SK-BR-3, 72 h, SKBR3 (breast)) was 3.5 µM and the IC50 (Homo sapiens, SK-HEP1, 72 h, SKHEP1 (liver)) was 2.9 µM. It also gave an IC50 (Homo sapiens, SK-LMS-1, 72 h, SKLMS1 (uterus)) of over 50 µM, an IC50 (Homo sapiens, SK-MEL-5, 72 h, SKMEL5 (skin; SKMELS [sic] in Table 9E)) of over 50 µM and an IC50 (Homo sapiens, SK-MEL-28, 72 h, SKMEL28 (skin)) of over 50 µM. It also gave an IC50 (Homo sapiens, SK-N-AS, SKNAS (brain)) of 6.05 µM, an IC50 (Homo sapiens, SK-N-SH, SKNSH (brain)) of 4.78 µM and an IC50 (Homo sapiens, SK-OV-3, 72 h, SKOV3 (ovary)) of over 50 µM. For the same molecule, the IC50 (Homo sapiens, SNB-75, 72 h, SNB75 (brain)) was 4.46 µM, the IC50 (Homo sapiens, SU-DHL10, 72 h, SU-DHL-10 (hematological)) was 3.24 µM and the IC50 (Homo sapiens, SU-DHL-6, 72 h, SU-DHL-6 (hematological)) was 2.94 µM. For the same molecule, the IC50 (Homo sapiens, SW-620, 72 h, SW620 (colon)) was over 50 µM, the IC50 (Homo sapiens, TE-671, 72 h, TE671 (muscle)) was 4.85 µM and the IC50 (Homo sapiens, THP-1, 72 h, THP-1 (hematological)) was 2.96 µM. It also gave an IC50 (Homo sapiens, U2OS, U20S (bone; U2OS in Table 9E)) of over 50 µM, an IC50 (Homo sapiens, U-87 MG, U87MG (brain)) of 1.06 µM and an IC50 (Homo sapiens, UMUC3, 72 h, UMUC3 (bladder)) of 4.2 µM. It also gave an IC50 (Homo sapiens, UO-31, 72 h, UO31 (kidney)) of 3.89 µM, an IC50 (Homo sapiens, WSU-NHL, WSU-NHL (hematological)) of 0.49 µM and an IC50 (NCI-H358M, NCIH358M (lung)) of 2.52 µM. For the same molecule, the IC50 (PBMC, PBMC (hematological)) was over 50 µM and the IC50 (RD-ES, RDES (bone)) was over 50 µM.

— patent US20250215039A1, “NUCLEOSIDES FOR TREATING CANCER” (PRIMEFOUR THERAPEUTICS, INC., priority 2022, published 2025)
